Laboratory results: PMC12679539, “Synthesis and evaluation of nitroheterocyclic aromatic adamantane amides with trypanocidal activity. Part II” (RSC Medicinal Chemistry, 2025)
Like-named read-outs stand apart in the source and are kept apart here.

Assays:
[1] = tested on: bloodstream-form Trypanosoma brucei; test: Activity against bloodstream-form Trypanosoma brucei (Alamar Blue growth inhibition); format: cell-based, Trypanosoma brucei (strain 427); details: for S.I. (selectivity index): ratio of IC50 values obtained with L6 cells and T. brucei
Description: (§1) Bloodstream form T. brucei (strain 427) were cultured at 37 °C in modified Iscove's medium. Trypanocidal activity was assessed by growing parasites in microtiter plates in the presence of various drug concentrations. […] The plates were incubated for 48 hours at 37 °C and 20 μL Alamar Blue was then added to each well. After an additional overnight incubation, the fluorescence was determined using a Gemini fluorescent plate reader (Molecular Devices). Inhibition of growth was calculated by comparison with control values and IC50 and IC90 values were determined in triplicate using linear regression analysis.

[2] = tested on: L. infantum intracellular amastigotes; test: Activity against intracellular L. infantum amastigotes in THP-1 derived macrophages (luciferase); format: cell-based, Leishmania infantum (MHOM/MA/67/ITMAP-263); details: for inhibition at 10 µM / IC50: Leishmania infantum; for inhibition at 10 µM: read-out: L. infantum (intracellular amastigotes) % of growth inhibition at 10 μM ± ST DEV; for IC50: read-out: L. infantum (intracellular amastigotes) IC50 (μM), 95% CI
Description: Leishmania infantum Luciferase-expressing L. infantum (strain MHOM/MA/67/ITMAP-263) axenic amastigotes were cultured in MAA/20 medium at 37 °C with 5% CO2, as described by Sereno et al. 1998.[26] The parasites were maintained in 5 mL T25 ventilated flasks and subcultured every seven days at a concentration of 1 × 10^6 cells per mL.
The activity against intracellular amastigotes of L. infantum was evaluated using a modified method described by Santarem, Tavares, and Cordeiro-da-Silva (2019).[27] THP-1 cells were differentiated into macrophages using PMA, as previously outlined. The differentiated macrophages were then infected with L. infantum axenic amastigotes expressing episomal luciferase at a macrophage-to-amastigote ratio of 1 : 10 for four hours at 37 °C in a 5% CO2 atmosphere. After this incubation, non-internalized parasites were washed away, and various concentrations of test compounds were added in a final volume of 100 μL. A dose–response curve for miltefosine was included in all assays to serve as a quality control. Each experimental condition was tested in quadruplicate. After 72 hours of incubation, the medium was replaced with 100 μL of PBS, and 25 μL of Glo-lysis buffer from the Steady-Glo Luciferase Assay System (Promega, Madison, WI, USA) was added. The plates were then agitated at 100 rpm for 10 minutes at room temperature. Following this, 30 μL of the Steady-Glo reagent (Promega, Madison, WI, USA) was added, and the mixture was incubated for 15 minutes in the dark under the same conditions. A total of 140 μL from each well was transferred to white-bottom 96-well plates, and luminescence intensity was measured using a Synergy 2 Multi-Mode Reader (Biotek, Winooski, VT, USA). The antileishmanial effect was assessed by comparing the results with those from non-treated infected cells. The IC50 value were determined through non-linear regression analysis using GraphPad Prism version 8.1.1 for Windows (GraphPad Software, San Diego, CA, USA). Results represent the average of at least three independent experiments.

[3] = tested on: T. cruzi epimastigotes; test: Activity against Trypanosoma cruzi epimastigotes (Alamar Blue growth inhibition); format: cell-based, Trypanosoma cruzi (strain CL Brener); details: CL Brener
Description: as §1, with “Trypanocidal” for “Bloodstream form T. brucei (strain 427) were cultured at 37 °C in modified Iscove's medium. Trypanocidal”, “4 days” for “48 hours”, “28” for “37”, “Blue (Biosource UK Ltd)” for “Blue”, “3 days” for “overnight”

[4] = tested on: L6 cells; test: Cytotoxic activity against rat skeletal myoblast L6 cells (Alamar Blue); format: cell-based; details: 120 h, cytotoxicity, 5 days
Description: The cytotoxicity against mammalian cells was assessed using microtitre plates. Briefly, L6 cells (a rat skeletal muscle line) were seeded at 1 × 10^4 mL^−1 in 200 μL of RPMI-1640 growth medium (with 10% fetal calf serum) containing 7 different compound concentrations in a range previously established to encompass both the IC50 and IC90 values. The plates were incubated for 5 days at 37 °C and 20 μL Alamar Blue (Biosource Ltd, Wilton, North Yorkshire England.) was then added to each well. After an additional 8 hours incubation, the fluorescence was determined using a Gemini fluorescent plate reader (Molecular Devices). Inhibition of growth was calculated by comparison with control values and IC50 and IC90 values were determined in triplicate using linear regression analysis.

[5] = tested on: L. infantum promastigotes; test: Activity against Leishmania infantum promastigotes (resazurin assay); format: cell-based, Leishmania infantum (MHOM/MA/67/ITMAP-263); details: for IC50: Leishmania infantum, promastigotes, 72 h, 95% CI in brackets
Description: Promastigotes from the L. infantum strain (MHOM/MA/67/ITMAP-263) were cultivated in 5 ml of Schneider's insect medium, which was supplemented with 10% heat-inactivated fetal bovine serum (FBS), 200 U ml^−1 of penicillin/streptomycin, 6 μg ml^−1 of phenol red, and 5 mM of HEPES. The cultures were maintained in an incubator at 27 °C and diluted to a concentration of 2 × 10^5 cells per ml every 5 days. For the assays the parasites used were equivalent to late/log with two or three days of culture.
The efficacy of the compounds against L. infantum promastigotes was evaluated using a resazurin-based assay. Parasites were added to 100 μl of serial dilutions of the compounds in supplemented complete medium at a cell density of 5 × 10^5 ml^−1. As a quality control, a dose–response curve with the antileishmanial drug miltefosine was included in all assays. The final volume of each assay was 200 μl per well, and each condition was tested in duplicate. After a 72-hour incubation under specific conditions for each parasite, 20 μl of a 0.5 mM resazurin solution was added, and the plates were incubated for an additional 4 hours under the same conditions. Fluorescence was measured at 544 nm for excitation and 590 nm for emission using a Synergy 2 Multi-Mode Reader (Biotek, Winooski, VT, USA). Results were expressed as the percentage of parasite growth inhibition compared to controls (untreated parasites) and represent the average of at least three independent experiments. The effect was evaluated by determining the IC50 value (the concentration required to inhibit 50% growth), calculated using non-linear regression curves via GraphPad Prism version 8.1.1 for Windows (GraphPad Software, San Diego, CA, USA).

[6] = Cytotoxicity on THP-1-derived macrophages (MTT assay); format: cell-based; details: human, THP-1-derived macrophages (PMA-differentiated), value or interval
Description: The THP-1 cell line, a human leukemia line (ATCC® TIB-202™), was cultured in RPMI-1640 medium supplemented with 10% heat-inactivated fetal bovine serum (FBS), 2 mM. L-Glutamine, 100 IU mL^−1 penicillin/streptomycin, and 20 mM HEPES. The cells were maintained in a humidified incubator at 37 °C with 5% CO2. Subculturing was performed every three days, using 20 mL of media at a concentration of 2 × 10^5 cells per mL in a T75 flask. All cell culture reagents were purchased from Lonza Bioscience (Morrisville, NC).
The cytotoxicity of the compounds on THP-1-derived macrophages was evaluated using the colorimetric MTT assay (3-(4,5-dimethylthiazol-2-yl)-2,5-diphenyltetrazolium bromide), as described in Magoulas et al. (2021).[28] THP-1 cells were suspended in complete RPMI medium at a density of 1 × 10^6 cells per mL, and 100 μL of this suspension was seeded into each well of a 96-well plate. The cells were differentiated into macrophages by adding 40 ng mL^−1 of phorbol-myristate 13-acetate (PMA, Sigma, Saint Louis, MI, USA) for 24 hours, followed by replacement with fresh medium for an additional 24 hours. Subsequently, the cells were incubated with 100 μL of various compounds, diluted in complete RPMI medium, at concentrations ranging from 100 to 12.5 μM. Each condition was tested in triplicate. After 72 hours of incubation at 37 °C with 5% CO2, the medium was removed, and 200 μL of a 0.5 mg mL^−1 MTT solution, diluted in RPMI, was added to each well. The plates were incubated for an additional 4 hours. Following this incubation, 160 μL of the medium was removed and replaced with 160 μL of 2-propanol. Absorbance was measured at 570 nm using a Synergy 2 Multi-Mode Reader (Biotek, Winooski, VT, USA). Cytotoxicity was determined by presenting the CC50 (the concentration of the drug that reduces cell viability by 50%) interval or by calculating the CC50 value through non-linear regression analysis using GraphPad Prism version 8.1.1 for Windows (GraphPad Software, San Diego, CA, USA). The results represent the average of at least three independent experiments.

[7] = tested on: T. cruzi intracellular amastigotes; test: microbe, parasite or virus in culture; format: cell-based, Trypanosoma cruzi CL Brener PpyRE9h:mScarlet; details: Trypanosoma cruzi, 120 h; in HeLa cells, 5 days
Description: Assays were performed in 96-well black (clear bottom) microtitre plates (Corning Inc.). HeLa ^† cells were seeded at 10^4 per well, incubated for 3 days, and then infected with T. cruzi CL Brener PpyRE9h : mScarlet[25] culture form trypomastigotes (1 : 1 multiplicity of infection). After 16 hours, extracellular parasites were removed by washing in growth medium (×3), test compounds were added, and the plates incubated for 5 days. Fluorescence intensities were then determined using a BMG FLUOstar Omega plate reader (ex 545 nm, em 590 nm), and the data analysed using GraphPad Prism 9.0 software. The values were expressed as IC50/90 ± SD and are the mean of triplicate experiments.

[8] = tested on: L6 cells; parameters: method as in PMID 26479031; details: cytotoxicity; cited from earlier work
[9] = tested on: bloodstream-form Trypanosoma brucei; details: read-out: T. brucei IC50; cited from earlier work
[10] = tested on: T. cruzi epimastigotes; details: read-out: T. cruzi (epimastigotes) IC50; cited from earlier work

O=C(NCc1ccc(C2C3CC4CC(C3)CC2C4)cc1)c1ccc([N+](=O)[O-])o1 (centres unmarked) [2b, N-[4-(2-Adamantyl)benzyl]-5-nitrofuran-2-carboxamide]
IC50 ([1]; Trypanosoma brucei, bloodstream form, concentration that inhibits growth by 50%, read-out: T. brucei IC50): 17 ± 3 nM | IC90 ([1]; Trypanosoma brucei, bloodstream form, concentration that inhibits growth by 90%, read-out: T. brucei IC90): 31 ± 1 nM | S.I. (selectivity index) [1]: 95 | inhibition at 10 µM ([2]; THP-1, 72 h): 84.6 ± 15.6% | IC50 ([2]; THP-1, 72 h): 3.97 µM | IC50 [3]: 560 ± 20 nM | IC90 [3]: 1200 ± 20 nM | IC50 [4]: 1600 ± 100 nM | IC50 [5]: 0.09 µM | CC50 at 72 h [6]: 12500 to 25000 nM

O=C(Cn1ccnc1[N+](=O)[O-])NCc1ccccc1 [Bzn, benznidazole, reference compound]
IC50 [7]: 1040 ± 320 nM | IC90 [7]: 2540 ± 810 nM | IC50 [3]: 5400 ± 200 nM | IC50 [8]: 510000 ± 22000 nM

CCCCCCCCCCCCCCCCOP(=O)([O-])OCC[N+](C)(C)C [MF, miltefosine, reference compound]
inhibition at 10 µM ([2]; THP-1, 72 h): 92 ± 5% | IC50 ([2]; THP-1 derived macrophages, 72 h, 95% CI in brackets): 2.65 µM | SI (intracellular amastigotes) CC50/Li ia IC50 ([2]; THP-1 CC50 / L. infantum intracellular amastigote IC50): 11.3 | IC50 [5]: 11.9 µM | SI (promastigotes) CC50/Li IC50 ([5]; THP-1 CC50 / L. infantum promastigote IC50): 2.5 | CC50 at 72 h [6]: 30000 nM

CC1CS(=O)(=O)CCN1/N=C/c1ccc([N+](=O)[O-])o1 (centres unmarked) [Nfx, nifurtimox]
IC50 [9]: 4400 ± 700 nM | S.I. (selectivity index) [1]: 7 | IC50 [10]: 3100 ± 500 nM
